# Results taken from paper PMC10170162, “Identification of a new gibberellin receptor agonist, diphegaractin, by a cell-free chemical screening system” (Communications Biology, 2023).
# Columns and labels:
# Assay in all cases: AlphaScreen GID1-DELLA interaction
# Format in all cases: biochemical
# OsGID1 (with OsSLR) = biological target: T1, OsGID1 (with OsSLR) (Oryza sativa, UniProt Q6L545, V326I/L330F); details: agonist; partner OsSLR; pH 8.0, 26 °C; unpurified cell-free proteins
# T1 construct: gene GID1; C-terminal biotinylated GID1 and C-terminal FLAG-tagged DELLA, wheat germ cell-free synthesis, unpurified; with DELLA protein SLR1
# T1 sequence (Q6L545 1-354 V326I/L330F): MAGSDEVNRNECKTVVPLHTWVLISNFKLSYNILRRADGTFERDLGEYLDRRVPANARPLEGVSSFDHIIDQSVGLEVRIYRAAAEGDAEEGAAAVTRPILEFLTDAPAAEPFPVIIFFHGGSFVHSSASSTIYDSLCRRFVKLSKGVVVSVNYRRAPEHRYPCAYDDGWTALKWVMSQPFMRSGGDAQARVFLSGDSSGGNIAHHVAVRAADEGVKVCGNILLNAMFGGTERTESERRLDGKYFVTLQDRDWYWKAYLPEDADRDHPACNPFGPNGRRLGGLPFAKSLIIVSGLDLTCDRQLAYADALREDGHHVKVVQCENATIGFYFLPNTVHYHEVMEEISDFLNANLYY
# T1 sequence (Q7G7J6 1-625 partner): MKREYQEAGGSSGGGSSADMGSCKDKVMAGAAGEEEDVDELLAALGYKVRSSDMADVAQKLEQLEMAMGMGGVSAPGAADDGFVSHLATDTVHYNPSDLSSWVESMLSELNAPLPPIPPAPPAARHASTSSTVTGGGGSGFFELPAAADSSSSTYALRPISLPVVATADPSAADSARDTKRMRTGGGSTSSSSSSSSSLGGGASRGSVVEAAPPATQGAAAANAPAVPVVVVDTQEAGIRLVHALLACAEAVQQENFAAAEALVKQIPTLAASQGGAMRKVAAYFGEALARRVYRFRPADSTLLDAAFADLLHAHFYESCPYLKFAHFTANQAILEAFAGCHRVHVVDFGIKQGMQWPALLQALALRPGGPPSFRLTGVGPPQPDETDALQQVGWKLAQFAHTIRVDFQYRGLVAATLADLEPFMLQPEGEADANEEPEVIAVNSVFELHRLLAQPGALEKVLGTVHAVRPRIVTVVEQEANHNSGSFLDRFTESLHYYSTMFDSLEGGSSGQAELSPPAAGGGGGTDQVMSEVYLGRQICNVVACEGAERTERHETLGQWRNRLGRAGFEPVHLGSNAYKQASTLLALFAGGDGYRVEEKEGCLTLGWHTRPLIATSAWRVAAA
# VvGID1a (with VvDELLA2) = biological target: T2, VvGID1a (with VvDELLA2) (Vitis vinifera, UniProt A5BRG2); details: agonist; partner VvDELLA2 (also VvDELLA1, VvDELLA3); dose series; pH 8.0, 26 °C; unpurified cell-free proteins
# T2 construct: C-terminal biotinylated GID1 and C-terminal FLAG-tagged DELLA, wheat germ cell-free synthesis, unpurified; also tested with VvDELLA1 and VvDELLA3; with DELLA protein
# T2 sequence (A5BRG2 1-344): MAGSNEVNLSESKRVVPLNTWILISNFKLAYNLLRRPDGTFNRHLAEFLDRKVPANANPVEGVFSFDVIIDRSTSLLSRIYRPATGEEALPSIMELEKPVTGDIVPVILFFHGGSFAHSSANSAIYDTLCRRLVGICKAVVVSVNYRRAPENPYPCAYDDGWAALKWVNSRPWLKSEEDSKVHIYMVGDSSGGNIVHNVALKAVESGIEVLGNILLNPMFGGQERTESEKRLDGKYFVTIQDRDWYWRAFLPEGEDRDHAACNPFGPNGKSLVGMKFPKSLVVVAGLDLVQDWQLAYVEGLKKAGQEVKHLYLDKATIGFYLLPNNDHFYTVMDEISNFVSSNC
# T2 sequence (F6HH58 1-532 partner): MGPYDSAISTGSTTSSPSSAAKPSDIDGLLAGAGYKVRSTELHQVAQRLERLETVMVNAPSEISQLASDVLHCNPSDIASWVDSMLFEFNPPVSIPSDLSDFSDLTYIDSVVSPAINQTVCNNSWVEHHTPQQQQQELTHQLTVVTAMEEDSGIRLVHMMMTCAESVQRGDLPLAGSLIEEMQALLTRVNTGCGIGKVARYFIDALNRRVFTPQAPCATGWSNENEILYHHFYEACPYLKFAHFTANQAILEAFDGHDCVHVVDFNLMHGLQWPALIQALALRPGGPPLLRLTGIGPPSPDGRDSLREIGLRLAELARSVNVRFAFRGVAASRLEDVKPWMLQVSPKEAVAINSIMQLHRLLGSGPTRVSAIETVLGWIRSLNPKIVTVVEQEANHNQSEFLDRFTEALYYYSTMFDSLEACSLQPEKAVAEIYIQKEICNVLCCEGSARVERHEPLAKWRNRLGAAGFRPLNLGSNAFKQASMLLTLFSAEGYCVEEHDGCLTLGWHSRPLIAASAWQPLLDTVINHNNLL
# VvGID1b (with VvDELLA2) = biological target: T3, VvGID1b (with VvDELLA2) (Vitis vinifera, UniProt F6HQ36); details: agonist; partner VvDELLA2 (also VvDELLA1); dose series; pH 8.0, 26 °C; unpurified cell-free proteins
# T3 construct: C-terminal biotinylated GID1 and C-terminal FLAG-tagged DELLA, wheat germ cell-free synthesis, unpurified; cDNA from grape leaf mRNA; with DELLA protein
# T3 sequence (F6HQ36 1-344): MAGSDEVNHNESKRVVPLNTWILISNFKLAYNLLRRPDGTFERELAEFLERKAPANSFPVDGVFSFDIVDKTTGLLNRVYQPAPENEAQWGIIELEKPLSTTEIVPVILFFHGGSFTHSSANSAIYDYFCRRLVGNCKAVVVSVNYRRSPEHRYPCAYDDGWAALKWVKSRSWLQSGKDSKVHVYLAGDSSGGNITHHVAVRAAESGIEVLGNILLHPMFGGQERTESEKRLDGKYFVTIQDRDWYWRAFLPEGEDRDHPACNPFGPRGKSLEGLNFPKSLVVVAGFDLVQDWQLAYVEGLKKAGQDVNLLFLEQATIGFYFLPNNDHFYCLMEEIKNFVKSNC
# T3 sequence (F6HH58 1-532 partner): T2 sequence (F6HH58 1-532 partner)
# AtGID1b (with AtRGA) = biological target: T4, AtGID1b (with AtRGA) (Arabidopsis thaliana, UniProt Q9LYC1); details: agonist; partner AtRGA; pH 8.0, 26 °C; unpurified cell-free proteins
# T4 construct: gene GID1B; C-terminal biotinylated GID1 and C-terminal FLAG-tagged DELLA, wheat germ cell-free synthesis, unpurified; with DELLA protein RGA
# T4 sequence (Q9LYC1 2-358): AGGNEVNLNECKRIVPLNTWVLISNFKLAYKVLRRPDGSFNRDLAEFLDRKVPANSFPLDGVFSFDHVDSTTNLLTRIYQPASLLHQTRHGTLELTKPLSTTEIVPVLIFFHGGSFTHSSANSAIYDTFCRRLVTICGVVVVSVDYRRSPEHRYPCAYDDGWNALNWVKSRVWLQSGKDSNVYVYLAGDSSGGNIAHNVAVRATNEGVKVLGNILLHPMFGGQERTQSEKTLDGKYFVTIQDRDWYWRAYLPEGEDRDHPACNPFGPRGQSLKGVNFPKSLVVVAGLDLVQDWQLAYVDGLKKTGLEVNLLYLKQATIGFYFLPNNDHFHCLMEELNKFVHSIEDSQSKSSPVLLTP
# T4 sequence (Q9SLH3 1-587 partner): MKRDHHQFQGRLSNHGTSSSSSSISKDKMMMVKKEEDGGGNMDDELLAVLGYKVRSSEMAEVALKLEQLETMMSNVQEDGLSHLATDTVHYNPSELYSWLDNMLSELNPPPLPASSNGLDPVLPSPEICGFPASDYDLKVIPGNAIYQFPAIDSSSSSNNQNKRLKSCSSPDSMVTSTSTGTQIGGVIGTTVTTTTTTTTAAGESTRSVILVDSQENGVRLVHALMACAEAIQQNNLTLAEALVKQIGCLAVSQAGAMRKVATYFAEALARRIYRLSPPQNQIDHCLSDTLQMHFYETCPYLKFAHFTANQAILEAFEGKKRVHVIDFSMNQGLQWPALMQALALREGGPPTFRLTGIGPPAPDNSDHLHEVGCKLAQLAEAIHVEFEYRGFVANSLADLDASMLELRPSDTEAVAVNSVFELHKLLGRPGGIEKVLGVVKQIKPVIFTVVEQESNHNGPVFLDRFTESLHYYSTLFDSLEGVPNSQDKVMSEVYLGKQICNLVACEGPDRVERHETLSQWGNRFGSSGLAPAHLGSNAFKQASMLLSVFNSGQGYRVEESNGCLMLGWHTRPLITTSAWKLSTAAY
# AtGID1c (with AtRGA) = biological target: T5, AtGID1c (with AtRGA) (Arabidopsis thaliana, UniProt Q940G6); details: agonist; partner AtRGA (also AtGAI); pH 8.0, 26 °C; unpurified cell-free proteins
# T5 construct: gene GID1C; C-terminal biotinylated GID1 and C-terminal FLAG-tagged DELLA, wheat germ cell-free synthesis, unpurified; also tested with AtGAI; with DELLA protein RGA
# T5 sequence (Q940G6 2-344): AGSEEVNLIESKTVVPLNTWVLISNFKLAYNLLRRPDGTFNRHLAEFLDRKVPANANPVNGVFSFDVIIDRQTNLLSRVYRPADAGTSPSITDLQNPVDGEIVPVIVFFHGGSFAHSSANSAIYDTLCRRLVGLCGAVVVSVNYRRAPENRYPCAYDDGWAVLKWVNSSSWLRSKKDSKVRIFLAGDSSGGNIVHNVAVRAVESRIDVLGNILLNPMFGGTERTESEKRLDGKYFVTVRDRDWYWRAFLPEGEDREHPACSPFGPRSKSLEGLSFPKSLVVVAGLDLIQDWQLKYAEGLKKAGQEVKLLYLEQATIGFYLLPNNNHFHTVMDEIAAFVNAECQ
# T5 sequence (Q9SLH3 1-587 partner): T4 sequence (Q9SLH3 1-587 partner)
AlphaScreen GID1-DELLA interaction (AtGID1c (with AtRGA)),SMILES,AlphaScreen GID1-DELLA interaction (OsGID1 (with OsSLR)),AlphaScreen GID1-DELLA interaction (VvGID1a (with VvDELLA2)),AlphaScreen GID1-DELLA interaction (VvGID1b (with VvDELLA2)),AlphaScreen GID1-DELLA interaction (AtGID1b (with AtRGA))
,C=C1C[C@]23C[C@@]1(O)CC[C@H]2[C@@]12C=C[C@H](O)[C@@](C)(C(=O)O1)[C@H]2[C@@H]3C(=O)O [GA3],swapping had little effect on the interaction between DELLA proteins and GA receptors by GA3,VvGID1a exhibited GA-dependent interactions with VvDELLA1-3,VvGID1b also exhibited active and inactive GA-dependent interactions with VvDELLA1 and VvDELLA2,
,C=C1C[C@]23C[C@H]1CC[C@H]2[C@@]12CC[C@H](O)[C@@](C)(C(=O)O1)[C@H]2[C@@H]3C(=O)O [GA4],,VvGID1a exhibited GA-dependent interactions with VvDELLA1-3,VvGID1b also exhibited active and inactive GA-dependent interactions with VvDELLA1 and VvDELLA2,
,C=C1C[C@]23C[C@@]1(O)CC[C@H]2[C@@]12CC[C@H](O)[C@@](C)(C(=O)O1)[C@H]2[C@@H]3C(=O)O [GA1],,VvGID1a exhibited GA-dependent interactions with VvDELLA1-3,VvGID1b also exhibited active and inactive GA-dependent interactions with VvDELLA1 and VvDELLA2,
,C=C1C[C@]23C[C@H]1CC[C@H]2[C@@]12C=C[C@H](O)[C@@](C)(C(=O)O1)[C@H]2[C@@H]3C(=O)O [GA7],,VvGID1a exhibited GA-dependent interactions with VvDELLA1-3,VvGID1b also exhibited active and inactive GA-dependent interactions with VvDELLA1 and VvDELLA2,
,C=C1C[C@]23C[C@H]1CC[C@H]2[C@@]12CCC[C@@](C)(C(=O)O1)[C@H]2[C@@H]3C(=O)O [GA9],,"Although a much higher concentration was required, inactive GAs also induced these interactions",,
,C=C1C[C@]23C[C@@]1(O)CC[C@H]2[C@@]12CCC[C@@](C)(C(=O)O1)[C@H]2[C@@H]3C(=O)O [GA20],,"Although a much higher concentration was required, inactive GAs also induced these interactions",,
AtGID1c with AtRGA and AtGAI,"CCCCCC(C(=O)O)(c1ccccc1)c1ccccc1 [diphegaractin, 2,2-diphenylheptanoic acid]",OsGID1 V326I/L330F mutant increased the interaction with OsSLR by diphegaractin,,"diphegaractin induced two interactions, VvGID1b–VvDELLA1 and VvGID1b–VvDELLA2",it promoted the interaction of AtGID1b with AtRGA
